We go through two molecules from patent US20070048812A1, “Cell-based luminogenic and nonluminogenic proteasome assays” (priority 2005, published 2007).

Series [1] concerns proteasome activities in Jurkat cells. In words: Cell-based luminescent proteasome assay in Jurkat cells. The conditions noted are these: 1.5 hours inhibitor exposure. On the procedure:
FIG. 3. Luminescence versus proteasome inhibitor concentration in Jurkat cells. Jurkatt cells were exposed to inhibitor (AdaAhxL3VS) for 1.5 hours and then contacted with LLVY-aminoluciferin (final concentration of 10 μM; SEQ ID NO:1).
NCI-H226 cells (ATCC #CRL-5826) were maintained as an attached line using RPMI 1640 (Sigma #R-8005) with 10% fetal bovine serum (Hyclone # SH30070) and passaged as needed. Jurkat, HL-60 and U937 suspension cell lines were likewise maintained and passaged. To prepare cells for a cell-based proteasome assay, adherent cells were harvested from the parent flask by removing medium, rinsing the flask with D-PBS and incubated with trypsin-EDTA (Sigma T-4040) for 3 to 4 minutes at 37° C. The trypsin reaction was stopped by adding complete medium containing serum, and cells were then centrifuged 4 minutes at 200×G. The cell pellet was suspended in fresh medium, cells counted by trypan blue exclusion and adjusted to 1.11×10^5 cells/ml. […]
For instance, one vial of V859A (Luciferin Detection Reagent) is suspended with 10 ml of buffer to which 50 to 100 μl of substrate is added, and 100 μl of cells are combined with 100 μl of substrate containing reagent. […] This pre-incubation depletes the free aminoluciferin present in the substrate, thereby reducing potential background luminescence. […]

The test system of a further series is U266 cells. Kind of series: Toxicity of proteasome inhibitor incubation to cells. Format: cell-based.
Another series deals with proteasomes (Homo sapiens, UniProt P28074). Kind of series: Lactacystin activity on proteasomes, LLVY-aminoluciferin luminescence with DTT. It is filed as biochemical. The note with it: at 20 μM, with DTT included (FIG. 2A). On the procedure: (§1) After a 0.5 hour preincubation in 25 mM HEPES/0.5 mM EDTA/1 mM DTT, a 2×reagent was added (20 μM LLVY-aminoluciferin (SEQ ID NO:1)/3 mM CaCL2/10 mM MgSO4).

The next series has as its system U937 cells. In words: ATP content (viability), CellTiter-Glo. Format: cell-based. The note with it: 1.5 hours treatment, concentrations tested. From the text:
(§2) Cell viability measurements were made using CellTiter Glo (Promega Corp.) in a parallel series of samples to confirm that viability was not affected by lactacystin treatment.

A further series relates to HL-60 cells. Kind of series: ATP content (viability), CellTiter-Glo. It is filed as cell-based. The note with it: 1.5 hours treatment, concentrations tested.
Excerpt: as §2

The next series addresses T1, calpain I (Homo sapiens, UniProt P07384).
T1 sequence (P07384 1-714): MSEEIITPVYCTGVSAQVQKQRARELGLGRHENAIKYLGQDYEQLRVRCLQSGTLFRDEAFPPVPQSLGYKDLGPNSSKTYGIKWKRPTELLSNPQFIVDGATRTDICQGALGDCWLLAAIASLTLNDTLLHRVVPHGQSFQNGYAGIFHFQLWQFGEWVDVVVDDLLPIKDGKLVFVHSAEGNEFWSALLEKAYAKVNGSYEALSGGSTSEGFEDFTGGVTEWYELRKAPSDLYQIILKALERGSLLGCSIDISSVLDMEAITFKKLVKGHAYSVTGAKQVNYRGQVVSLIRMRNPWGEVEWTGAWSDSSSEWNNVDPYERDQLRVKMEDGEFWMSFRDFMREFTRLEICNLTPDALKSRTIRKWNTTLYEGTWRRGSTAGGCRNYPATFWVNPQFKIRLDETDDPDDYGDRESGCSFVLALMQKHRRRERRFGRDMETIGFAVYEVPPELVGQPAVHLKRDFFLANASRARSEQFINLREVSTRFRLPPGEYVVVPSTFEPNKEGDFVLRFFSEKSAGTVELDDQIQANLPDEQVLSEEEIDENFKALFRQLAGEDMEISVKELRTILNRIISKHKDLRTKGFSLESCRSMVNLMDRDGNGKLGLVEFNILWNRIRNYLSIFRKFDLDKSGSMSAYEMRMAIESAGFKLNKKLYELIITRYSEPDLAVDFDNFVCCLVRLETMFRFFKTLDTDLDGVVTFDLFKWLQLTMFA
T1 sequence (P04632 1-268 partner): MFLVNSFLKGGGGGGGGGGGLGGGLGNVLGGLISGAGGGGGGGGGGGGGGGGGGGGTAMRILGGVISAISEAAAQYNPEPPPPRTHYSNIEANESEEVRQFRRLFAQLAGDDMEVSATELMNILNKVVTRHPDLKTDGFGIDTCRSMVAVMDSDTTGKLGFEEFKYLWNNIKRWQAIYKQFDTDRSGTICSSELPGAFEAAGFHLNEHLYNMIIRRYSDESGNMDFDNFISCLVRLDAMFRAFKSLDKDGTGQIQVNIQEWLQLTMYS
In words: Lactacystin activity on purified calpain, LLVY-aminoluciferin luminescence. The conditions noted are these: 0.5 hour preincubation, calcium present (FIG. 2A). Format: biochemical. As for the experimental part:
as §1

Take `CC(C)CC(C=CS(C)(=O)=O)NC(=O)[C@H](CC(C)C)NC(=O)[C@H](CC(C)C)NC(=O)CCCCCNC(=O)CCCCCNC(=O)CCCCCNC(=O)CC12CC3CC(CC(C3)C1)C2` (stereo partly shown) [AdaAhx3L3VS, adamantane-acetyl-(6-aminohexanoyl)3-(leucinyl)3-vinyl-(methyl)-sulfone]: the “chymotrypsin-like, trypsin-like and caspase-like proteasome activities” value in series [1] is “blocked all three activities”. In addition, the “toxicity to the cells, short incubations” value with U266 cells (incubation for 1 to 2 hours) is “not toxic”. Besides, the “toxicity to the cells, longer incubation times” value with U266 cells (longer incubation times) is on record as “induced apoptosis”.

With `CC(=O)N[C@@H](CSC(=O)[C@]1([C@@H](O)C(C)C)NC(=O)[C@H](C)[C@@H]1O)C(=O)O` [lactacystin], the “inhibition of the proteasome” value on proteasomes is listed as “incomplete inhibition”. In addition, the “cell viability (ATP assay, CellTiterGlo)” value in the series with U937 cells and with HL-60 cells was “did not kill the cells” each time. Besides, the “effect on calpain I” value at calpain I was “minimal effect”.
